# Source: US20240108602A1, “TREATMENT OF MENTAL DISORDERS” (GH Research Ireland Limited, priority 2022, published 2024)
# System: patients with postpartum depression (PPD)
# Assay: Clinical trial of inhaled 5-MeO-DMT (IDR) in patients with postpartum depression
# Protocol: The single-arm, open-label clinical trial will involve 15 adult female patients with clinically diagnosed postpartum depression (PPD).
# The second dose (12 mg) will only be administered if: • a. A peak experience (total score of ≥75) has not been achieved following the 6 mg dose, and • b. The 6 mg dose was safe and well-tolerated according to the investigator, • c. Any psychoactive effects (PsE) of the prior dose have subsided, and • d. Pre-dose vital parameters and forced expiratory volume in one second (FEV1) are in normal range, or if outside of the normal range, are not clinically significant according to the investigator. • 3. Similarly, a third dose (18 mg) will only be administered if: • a. A peak experience (total score of ≥75) has not been achieved following the 12 mg dose, and • b. The 12 mg dose was safe and well-tolerated according to the investigator, and • c. Any PsE of the prior dose have subsided, and • d. Pre-dose vital parameters and forced expiratory volume in one second (FEV1) are in normal range, or if outside of the normal range, are not clinically significant according to the investigator.
# The patients will be assessed for a peak psychedelic experience (based on a patient-scored visual analogue scale, the PE scale), sedation, and other endpoints after dosing.
# Follow-up visits are planned for Day 1, and Day 7 after the dosing day.
# The following criteria must be met by all patients considered for clinical trial participation: • 1. Is female and in the age range between 18 and 45 years (inclusive) at screening. • 2. Has a body mass index (BMI) in the range of 18.5 and 35 kg/m^2 (inclusive) at screening. • 3. Meets the trial criteria for PPD as assessed by a trial psychiatrist or registered psychologist: • a. Diagnosis of Major Depressive Disorder without psychotic features, confirmed by the Mini-International Neuropsychiatric Interview (MINI), with peri-partum onset that began no earlier than gestation and no later than the first 4 weeks postpartum. • b. Has a Montgomery-Åsberg Depression Rating Scale (MADRS) total score of equal to or greater than 28 at screening and pre-dose on Day 0. • 6. […] Patients must have a negative pregnancy test at screening and on the pre-test day (Day−1). • 5. Is willing to delay start of other antidepressant or anxiety medication until after the end of the trial at Day 7 and agrees to keep any psychotherapy unchanged during the trial.
smiles,measurement,setting,value
COc1ccc2[nH]cc(CCN(C)C)c2c1 [5-MeO-DMT],BIMF item 12 (taking good care of my baby's physical needs) score,"PPD patient 1, Day 7",6
same,BIMF item 12 Δ vs Day 0,"PPD patient 1, Day 7",0
same,BIMF item 13 (taking good care of my physical needs) score,"PPD patient 1, Day 7",5
same,BIMF item 13 Δ vs Day 0,"PPD patient 1, Day 7",1
same,BIMF item 14 (good decisions about my baby's health and well being) score,"PPD patient 1, Day 7",6
same,BIMF item 14 Δ vs Day 0,"PPD patient 1, Day 7",0
same,BIMF item 15 (My baby and I are getting into a routine) score,"PPD patient 1, Day 7",6
same,BIMF item 15 Δ vs Day 0,"PPD patient 1, Day 7",1
same,BIMF item 16 (I worry about how other people judge me) score,"PPD patient 1, Day 7",5
same,BIMF item 16 Δ vs Day 0,"PPD patient 1, Day 7",2
same,BIMF item 17 (able to take care of my baby and my other responsibilities) score,"PPD patient 1, Day 7",5
same,BIMF item 17 Δ vs Day 0,"PPD patient 1, Day 7",0
same,BIMF item 18 (Anxiety or worry often interferes with my mothering ability) score,"PPD patient 1, Day 7",5
same,BIMF item 18 Δ vs Day 0,"PPD patient 1, Day 7",3
same,BIMF item 19 (getting better at taking care of my baby) score,"PPD patient 1, Day 7",1
same,BIMF item 19 Δ vs Day 0,"PPD patient 1, Day 7",1
same,BIMF item 20 (satisfied with the job I am doing as a new mother) score,"PPD patient 1, Day 7",5
same,BIMF item 20 Δ vs Day 0,"PPD patient 1, Day 7",−1
same,BPRS Anxiety improvement,"PPD patient 1, Day 7",6
same,BPRS Anxiety score,"PPD patient 1, Day 7",1
same,BPRS Blunted affect improvement,"PPD patient 1, Day 7",0
same,BPRS Blunted affect score,"PPD patient 1, Day 7",1
same,BPRS Conceptual disorganization improvement,"PPD patient 1, Day 7",0
same,BPRS Conceptual disorganization score,"PPD patient 1, Day 7",1
same,BPRS Depressive Mood improvement,"PPD patient 1, Day 7",5
same,BPRS Depressive Mood score,"PPD patient 1, Day 7",1
same,BPRS Disorientation improvement,"PPD patient 1, Day 7",0
same,BPRS Disorientation score,"PPD patient 1, Day 7",1
same,BPRS Emotional withdrawal improvement,"PPD patient 1, Day 7",4
same,BPRS Emotional withdrawal score,"PPD patient 1, Day 7",1
same,BPRS Excitement improvement,"PPD patient 1, Day 7",1
same,BPRS Excitement score,"PPD patient 1, Day 7",1
same,BPRS Grandiosity improvement,"PPD patient 1, Day 7",0
same,BPRS Grandiosity score,"PPD patient 1, Day 7",1
same,BPRS Guilt feelings improvement,"PPD patient 1, Day 7",5
same,BPRS Guilt feelings score,"PPD patient 1, Day 7",1
same,BPRS Hallucinatory behaviour improvement,"PPD patient 1, Day 7",0
same,BPRS Hallucinatory behaviour score,"PPD patient 1, Day 7",1
same,BPRS Hostility improvement,"PPD patient 1, Day 7",0
same,BPRS Hostility score,"PPD patient 1, Day 7",1
same,BPRS Mannerisms and Posturing improvement,"PPD patient 1, Day 7",0
same,BPRS Mannerisms and Posturing score,"PPD patient 1, Day 7",1
same,BPRS Motor retardation improvement,"PPD patient 1, Day 7",0
same,BPRS Motor retardation score,"PPD patient 1, Day 7",1
same,BPRS Somatic Concern improvement,"PPD patient 1, Day 7",5
same,BPRS Somatic Concern score,"PPD patient 1, Day 7",1
same,BPRS Suspiciousness improvement,"PPD patient 1, Day 7",0
same,BPRS Suspiciousness score,"PPD patient 1, Day 7",1
same,BPRS Tension improvement,"PPD patient 1, Day 7",5
same,BPRS Tension score,"PPD patient 1, Day 7",1
same,BPRS Uncooperativeness improvement,"PPD patient 1, Day 7",0
same,BPRS Uncooperativeness score,"PPD patient 1, Day 7",1
same,BPRS Unusual Thought Content improvement,"PPD patient 1, Day 7",0
same,BPRS Unusual Thought Content score,"PPD patient 1, Day 7",1
same,MADRS Apparent sadness improvement,"PPD patient 1, Day 7",5
same,MADRS Apparent sadness score,"PPD patient 1, Day 7",0
same,MADRS Concentration Difficulties improvement,"PPD patient 1, Day 7",0
same,MADRS Concentration Difficulties score,"PPD patient 1, Day 7",0
same,MADRS Inability to Feel improvement,"PPD patient 1, Day 7",3
same,MADRS Inability to Feel score,"PPD patient 1, Day 7",0
same,MADRS Inner Tension improvement,"PPD patient 1, Day 7",4
same,MADRS Inner Tension score,"PPD patient 1, Day 7",1
same,MADRS Lassitude improvement,"PPD patient 1, Day 7",3
same,MADRS Lassitude score,"PPD patient 1, Day 7",0
same,MADRS Pessimistic Thoughts improvement,"PPD patient 1, Day 7",4
same,MADRS Pessimistic Thoughts score,"PPD patient 1, Day 7",0
same,MADRS Reduced Sleep improvement,"PPD patient 1, Day 7",5
same,MADRS Reduced Sleep score,"PPD patient 1, Day 7",0
same,MADRS Reduced appetite improvement,"PPD patient 1, Day 7",0
same,MADRS Reduced appetite score,"PPD patient 1, Day 7",0
same,MADRS Reported sadness improvement,"PPD patient 1, Day 7",4
same,MADRS Reported sadness score,"PPD patient 1, Day 7",0
same,MADRS Suicidal Thoughts improvement,"PPD patient 1, Day 7",0
same,MADRS Suicidal Thoughts score,"PPD patient 1, Day 7",0
same,Total MADRS improvement,"PPD patient 1, Day 7",28
same,Total MADRS score,"PPD patient 1, Day 7",1
same,BIMF total score improvement,"PPD patient 1, Day 7, from 92 to 105",14%
same,BPRS Anxiety improvement,"PPD patient 1, Discharge",6
same,BPRS Anxiety score,"PPD patient 1, Discharge",1
same,BPRS Blunted affect improvement,"PPD patient 1, Discharge",0
same,BPRS Blunted affect score,"PPD patient 1, Discharge",1
same,BPRS Conceptual disorganization improvement,"PPD patient 1, Discharge",0
same,BPRS Conceptual disorganization score,"PPD patient 1, Discharge",1
same,BPRS Depressive Mood improvement,"PPD patient 1, Discharge",5
same,BPRS Depressive Mood score,"PPD patient 1, Discharge",1
same,BPRS Disorientation improvement,"PPD patient 1, Discharge",0
same,BPRS Disorientation score,"PPD patient 1, Discharge",1
same,BPRS Emotional withdrawal improvement,"PPD patient 1, Discharge",4
same,BPRS Emotional withdrawal score,"PPD patient 1, Discharge",1
same,BPRS Excitement improvement,"PPD patient 1, Discharge",1
same,BPRS Excitement score,"PPD patient 1, Discharge",1
same,BPRS Grandiosity improvement,"PPD patient 1, Discharge",0
same,BPRS Grandiosity score,"PPD patient 1, Discharge",1
same,BPRS Guilt feelings improvement,"PPD patient 1, Discharge",5
same,BPRS Guilt feelings score,"PPD patient 1, Discharge",1
same,BPRS Hallucinatory behaviour improvement,"PPD patient 1, Discharge",0
same,BPRS Hallucinatory behaviour score,"PPD patient 1, Discharge",1
same,BPRS Hostility improvement,"PPD patient 1, Discharge",0
same,BPRS Hostility score,"PPD patient 1, Discharge",1
same,BPRS Mannerisms and Posturing improvement,"PPD patient 1, Discharge",0
same,BPRS Mannerisms and Posturing score,"PPD patient 1, Discharge",1
same,BPRS Motor retardation improvement,"PPD patient 1, Discharge",0
same,BPRS Motor retardation score,"PPD patient 1, Discharge",1
same,BPRS Somatic Concern improvement,"PPD patient 1, Discharge",5
same,BPRS Somatic Concern score,"PPD patient 1, Discharge",1
same,BPRS Suspiciousness improvement,"PPD patient 1, Discharge",0
same,BPRS Suspiciousness score,"PPD patient 1, Discharge",1
same,BPRS Tension improvement,"PPD patient 1, Discharge",5
same,BPRS Tension score,"PPD patient 1, Discharge",1
same,BPRS Uncooperativeness improvement,"PPD patient 1, Discharge",0
same,BPRS Uncooperativeness score,"PPD patient 1, Discharge",1
same,BPRS Unusual Thought Content improvement,"PPD patient 1, Discharge",0
same,BPRS Unusual Thought Content score,"PPD patient 1, Discharge",1
same,time to clinical remission after administration,"PPD patient 1, IDR 6 mg then 12 mg",≤ 2 h
same,PES score (intensity of psychedelic experience),"PPD patient 1, nominal dose 6 mg",17.3
same,changes in vital parameters,"PPD patient 1, shortly after administration","temporary, clinically non-relevant increase in heart rate and blood pressure"
same,PES score (intensity of psychedelic experience),"PPD patient 1, subsequent dose 12 mg",85.7
same,"ECG, safety laboratory analyses, CADSS",PPD patient 2,unremarkable
same,MADRS response (at least 50% improvement) and MADRS remission (total score 10 or less),PPD patient 2,fulfilled standard criteria
same,"reported adverse events (mild, resolved spontaneously)",PPD patient 2,vomiting on Day 0 and headache on Day 5
same,PES score (intensity of psychedelic experience),"PPD patient 2, nominal dose 6 mg",1
same,changes in vital parameters,"PPD patient 2, shortly after administration","temporary, clinically non-relevant increase in heart rate"
same,PES score (intensity of psychedelic experience),"PPD patient 2, subsequent dose 12 mg",94.7
